From patent US20250288584A1, “COMBINATIONS COMPRISING POSITIVE ALLOSTERIC MODULATORS OR ORTHOSTERIC AGONISTS OF METABOTROPIC GLUTAMATERGIC RECEPTOR SUBTYPE 2 AND THEIR USE” (JANSSEN PHARMACEUTICA NV, priority 2014, published 2025)
Like-named read-outs stand apart in the source and are kept apart here.

Biological target: T1, human mGlu2 receptor (Homo sapiens, UniProt Q14416)
T1 construct: expressed in transfected cells; host or cells: CHO cells
Assay: [35S]GTPγS binding assay, mGluR2 PAM
Assay type: biochemical
Settings: for EC50 / GTPγS-hmGluR2 PAM pEC50: in presence of EC20 glutamate; for EC50: read-out: GTPγS-hmGluR2 PAM pEC50 (converted); for GTPγS-hmGluR2 PAM Emax / Emax: EC20 glutamate
Procedure: The [^35S]GTPγS binding assay is a functional membrane-based assay used to study G-protein coupled receptor (GPCR) function whereby incorporation of a non-hydrolysable form of GTP, [^35S]GTPγS (guanosine 5′-triphosphate, labelled with […] ^35S), is measured.
Cells were then collected by scraping in PBS and cell suspension was centrifuged (10 min at 4000 RPM in benchtop centrifuge). Supernatant was discarded and pellet gently resuspended in 50 mM Tris-HCl, pH 7.4 by mixing with a vortex and pipetting up and down. The suspension was centrifuged at 16,000 RPM (Sorvall RC-5C plus rotor SS-34) for 10 minutes and the supernatant discarded. The pellet was homogenized in 5 mM Tris-HCl, pH 7.4 using an ultra-turrax homogenizer and centrifuged again (18,000 RPM, 20 min, 4° C.). The final pellet was resuspended in 50 mM Tris-HCl, pH 7.4 and stored at-80° C. in appropriate aliquots before use. Protein concentration was determined by the Bradford method (Bio-Rad, USA) with bovine serum albumin as standard.
Measurement of mGluR2 positive allosteric modulatory activity of test compounds was performed as follows. Test compounds and glutamate were diluted in assay buffer containing 10 mM HEPES acid, 10 mM HEPES salt, pH 7.4, 100 mM NaCl, 3 mM MgCl2 and 10 μM GDP. Human mGlu2 receptor-containing membranes were thawed on ice and diluted in assay buffer supplemented with 14 μg/ml saponin. Membranes were pre-incubated with compound alone or together with a predefined (˜EC20) concentration of glutamate (PAM assay) for 30 min at 30° C. After addition of [^35S] GTPγS (f.c. 0.1 nM), assay mixtures were shaken briefly and further incubated to allow [^35S] GTPγS incorporation on activation (30 minutes, 30° C.). Final assay mixtures contained 7 μg of membrane protein in 10 mM HEPES acid, 10 mM HEPES salt, pH 7.4, 100 mM NaCl, 3 mM MgCl2, 10 µM GDP and 2 μg/ml saponin. Total reaction volume was 200 μl. Reactions were terminated by rapid filtration through Unifilter-96 GF/B plates (Perkin Elmer, Massachusetts, USA) using a 96-well filtermate universal harvester. Filters were washed 6 times with ice-cold 10 mM NaH2PO4/10 mM Na2HPO4, pH 7.4. Filters were then air-dried, and 40 μl of liquid scintillation cocktail (Microscint-O) was added to each well. Membrane-bound radioactivity was counted in a Microplate Scintillation and Luminescence Counter from Perkin Elmer.
The concentration-response curves of representative compounds of the present invention-obtained in the presence of EC20 of mGluR2 agonist glutamate to determine positive allosteric modulation (PAM)—were generated using the Lexis software interface (developed at J&J). Data were calculated as % of the control glutamate response, defined as the maximal response that is generated upon addition of glutamate alone. Sigmoid concentration-response curves plotting these percentages versus the log concentration of the test compound were analyzed using non-linear regression analysis. The concentration producing half-maximal effect is then calculated as EC50. The pEC50 values below were calculated as the −log EC50, when the EC50 is expressed in M. Emax is defined as relative maximal effect (i.e. maximal % effect relative to the control glutamate response).

[1] = maximal % effect relative to control glutamate response, read-out: GTPγS-hmGluR2 PAM Emax

T1 sequence (Q14416 19-872): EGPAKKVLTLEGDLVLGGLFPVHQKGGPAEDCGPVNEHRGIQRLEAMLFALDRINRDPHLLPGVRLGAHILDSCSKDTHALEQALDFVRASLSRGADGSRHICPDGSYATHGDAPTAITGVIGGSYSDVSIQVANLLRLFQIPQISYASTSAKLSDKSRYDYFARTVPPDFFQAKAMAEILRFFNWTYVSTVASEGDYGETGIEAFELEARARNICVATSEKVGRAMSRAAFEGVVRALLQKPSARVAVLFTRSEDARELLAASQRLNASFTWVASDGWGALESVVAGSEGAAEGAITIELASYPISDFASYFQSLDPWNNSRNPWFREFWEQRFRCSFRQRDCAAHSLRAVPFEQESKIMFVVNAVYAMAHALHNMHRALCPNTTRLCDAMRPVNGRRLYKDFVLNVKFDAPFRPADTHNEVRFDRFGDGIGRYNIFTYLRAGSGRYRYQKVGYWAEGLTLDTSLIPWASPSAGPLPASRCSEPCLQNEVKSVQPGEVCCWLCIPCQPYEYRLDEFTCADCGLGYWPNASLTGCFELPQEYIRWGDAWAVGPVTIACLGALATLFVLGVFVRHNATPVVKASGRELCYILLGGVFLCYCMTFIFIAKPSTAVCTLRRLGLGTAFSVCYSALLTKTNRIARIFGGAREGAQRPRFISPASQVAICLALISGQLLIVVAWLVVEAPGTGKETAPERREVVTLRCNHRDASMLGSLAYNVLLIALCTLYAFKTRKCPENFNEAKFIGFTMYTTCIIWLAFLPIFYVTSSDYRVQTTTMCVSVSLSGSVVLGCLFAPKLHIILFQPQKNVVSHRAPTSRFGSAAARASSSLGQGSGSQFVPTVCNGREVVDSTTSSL

| SMILES | EC50 [nM] | Emax [1] [%] | further results |
| --- | --- | --- | --- |
| CCCc1nnc2c(C(F)(F)F)c(C(C)Oc3ccc(F)cc3F)ccn12 (single isomer, unassigned) [Co. No. 32-b] | 1950 |  | GTPγS-hmGluR2 PAM Emax (maximal % effect relative to control glutamate response, listed as 32-b): 116% |
| CC1(C)OC2(CCN(c3ccn4c(CC(F)(F)F)nnc4c3Cl)CC2)c2ccccc21 [Co. No. 12] |  | 261 |  |
| CCOCc1nnc2c(C(F)(F)F)c(C(C)Oc3c(F)cc(F)cc3F)ccn12 (single isomer, unassigned) [Co. No. 22-b, 3-(Ethoxymethyl)-8-(trifluoromethyl)-7-[(1*R)-1-(2,4,6-trifluorophenoxy)ethyl][1,2,4]triazolo[4,3-a]pyridine] |  |  | GTPγS-hmGluR2 PAM Emax (maximal % effect relative to control glutamate response, listed as 22-b): 325% |
| CC(Oc1ccc(F)cc1)c1ccn2c(CC3CC3)nnc2c1C(F)(F)F (centres unmarked) [Co. No. 1-b, 3-(Cyclopropylmethyl)-7-[1-(4-fluorophenoxy)ethyl]-8-(trifluoromethyl)[1,2,4]triazolo-[4,3-a]pyridine] |  | 296 |  |
| CC(C)CCn1ccc(N2CCC(F)(c3ccccc3)CC2)c(Cl)c1=O [Co. No. 23-a] |  | 203 | GTPγS-hmGluR2 PAM pEC50: 6.58 |
| C[C@H](Oc1cc(F)ccc1F)c1ccn2c(CC3CC3)nnc2c1C(F)(F)F [Co. No. 10-b, 3-(Cyclopropylmethyl)-7-[(1S)-1-(2,5-difluorophenoxy)ethyl]-8-(trifluoromethyl)[1,2,4]triazolo[4,3-a]pyridine] |  | 218 |  |
| Cc1ccc(O[C@@H](C)c2ccn3c(CC4CC4)nnc3c2C(F)(F)F)c(Cl)c1 [Co. No. 13-b, 7-[(1S)-1-(2-Chloro-4-methylphenoxy)ethyl]-3-(cyclopropylmethyl)-8-(trifluoromethyl)[1,2,4]triazolo[4,3-a]pyridine] |  | 280 |  |
| CCCCn1ccc(N2CCC3(CC2)OCc2ccccc23)c(Cl)c1=O [Co. No. 32-a] | 219 | 347 |  |
| CCOCc1nnc2c(C(F)(F)F)c(C(C)Oc3ccc(F)cc3F)ccn12 (single isomer, unassigned) [Co. No. 21-b, 7-[(1*S)-1-(2,4-Difluorophenoxy)ethyl]-3-(ethoxymethyl)-8-(trifluoromethyl)[1,2,4]triazolo[4,3-a]pyridine] |  |  | GTPγS-hmGluR2 PAM Emax (maximal % effect relative to control glutamate response, listed as 21-b): 102% |
| CC(Oc1ccc(F)cc1F)c1ccn2c(CC3CCC3)nnc2c1C(F)(F)F (single isomer, unassigned) [Co. No. 18-b, 3-(Cyclobutylmethyl)-7-[(1*S)-1-(2,4-difluorophenoxy)ethyl]-8-(trifluoromethyl)[1,2,4]triazolo[4,3-a]pyridine] | 575 | 213 |  |
| N#CC1(c2ccccc2)CCN(c2ccn(CC3CC3)c(=O)c2Cl)CC1 [Co. No. 6-a] |  | 255 |  |
| O=c1c(Cl)c(N2CCC(F)(c3ccccc3)CC2)ccn1CCC1CC1 [Co. No. 26-a] | 316 | 248 |  |
| CC1(c2ccc(F)cc2)CCN(Cc2ccn3c(CC4CC4)nnc3c2C(F)(F)F)CC1 [Co. No. 3] |  |  | Emax (read-out: GTPγS-hmGluR2 PAM Emax, maximal % effect relative to control glutamate response): 212% |
| FC(F)(F)c1c(N2CCN(c3ncccn3)CC2)ccn2c(CC3CC3)nnc12 [Co. No. 8] | 186 | 360 |  |
| C[C@@H](Oc1ccc(F)cc1F)c1ccn2c(CC3CC3)nnc2c1C(F)(F)F [Co. No. 5-b, 3-(Cyclopropylmethyl)-7-[(1R)-1-(2,4-difluorophenoxy)ethyl]-8-(trifluoromethyl)[1,2,4]triazolo[4,3-a]pyridine] |  | 141 |  |
| CC(C)CCn1ccc(N2CCC(c3ccc(F)cc3F)CC2)c(Cl)c1=O [Co. No. 24-a] |  | 258 | GTPγS-hmGluR2 PAM pEC50: 6.91 |
| O=c1c(Cl)c(N2CCC(c3ccccc3)CC2)ccn1CCC1CC1 [Co. No. 10-a] |  | 290 | GTPγS-hmGluR2 PAM pEC50: 6.88 |
| Fc1ccc(C2CCN(c3ccn4c(CC5CC5)nnc4c3Cl)CC2)c(F)c1 [Co. No. 10] |  | 357 |  |
| O=c1c(Cl)c(N2CCC(F)(c3ccccc3)CC2)ccn1CC1CC1 [Co. No. 17-a] | 288 | 261 |  |
| C[C@H](Oc1cccc(F)c1F)c1ccn2c(CC3CC3)nnc2c1C(F)(F)F [Co. No. 9-b, 3-(Cyclopropylmethyl)-7-[(1S)-1-(2,3-difluorophenoxy)ethyl]-8-(trifluoromethyl)[1,2,4]triazolo[4,3-a]pyridine] |  | 260 |  |

| SMILES | EC50 [nM] | Emax [1] [%] | further results |
| --- | --- | --- | --- |
| O=c1c(Cl)c(N2CCC(c3ccc(F)cc3F)CC2)ccn1CC1CC1 [Co. No. 14-a] |  | 259 | GTPγS-hmGluR2 PAM pEC50: 6.92 |
| O=c1c(Cl)c(N2CCC(OCCF)(c3ccccc3)CC2)ccn1CC1CC1 [Co. No. 20-a] |  | 243 |  |
| CCCc1nnc2c(C(F)(F)F)c(C(C)Oc3ccc(F)cc3F)ccn12 (single isomer, unassigned) [Co. No. 31-b] | 89.1 |  | GTPγS-hmGluR2 PAM Emax (maximal % effect relative to control glutamate response, listed as 31-b): 251% |
| O=c1c(Cl)c(N2CCC(c3ccccc3)CC2)ccn1CC1CC1 [Co. No. 1-a] | 166 | 314 |  |
| CCCCn1ccc(N2CCC(c3ccccc3C(C)(C)O)CC2)c(Cl)c1=O [Co. No. 28-a] | 110 | 297 |  |
| Fc1cnc(N2CCN(Cc3ccn4c(CC5CC5)nnc4c3C(F)(F)F)CC2)c(F)c1 [Co. No. 13] | 126 | 278 |  |
| C[C@H](Oc1cc(F)cc(F)c1)c1ccn2c(CC3CC3)nnc2c1C(F)(F)F [Co. No. 7-b, 3-(Cyclopropylmethyl)-7-[(1S)-1-(3,5-difluorophenoxy)ethyl]-8-(trifluoromethyl)[1,2,4]triazolo[4,3-a]pyridine] |  | 292 |  |
| COc1cc(F)ccc1O[C@@H](C)c1ccn2c(CC3CC3)nnc2c1C(F)(F)F [Co. No. 12-b, 3-(Cyclopropylmethyl)-7-[(1S)-1-(4-fluoro-2-methoxyphenoxy)ethyl]-8-(trifluoromethyl)[1,2,4]triazolo[4,3-a]pyridine] |  | 178 |  |
| O=c1c(Br)c(N2CCC(c3ccccc3)CC2)ccn1CC1CC1 [Co. No. 3-a] |  | 231 |  |
| CCCCn1ccc(N2CCC(c3ccc(C(C)(C)O)cc3F)CC2)c(Cl)c1=O [Co. No. 29-a] | 107 | 317 |  |
| O=c1c(Cl)c(N2CCC(c3cccc(C(F)(F)F)c3)CC2)ccn1CC1CC1 [Co. No. 16-a] |  | 223 | GTPγS-hmGluR2 PAM pEC50: 7.12 |
| Cc1cc(F)ccc1O[C@@H](C)c1ccn2c(CC3CC3)nnc2c1C(F)(F)F [Co. No. 14-b, 3-(Cyclopropylmethyl)-7-[(1S)-1-(4-fluoro-2-methylphenoxy)ethyl]-8-(trifluoromethyl)[1,2,4]triazolo[4,3-a]pyridine] |  | 281 |  |
| CCCc1nnc2c(C(F)(F)F)c(C(C)Oc3ccc(F)cc3F)ccn12 (centres unmarked) [Co. No. 30-b, 7-[1-(2,4-Difluorophenoxy)ethyl]-3-propyl-8-(trifluoromethyl)[1,2,4]triazolo[4,3-a]pyridine] |  | 227 |  |
| CCCCn1ccc(N2CCC(F)(c3ccccc3)CC2)c(Cl)c1=O [Co. No. 7-a] | 229 | 291 |  |
| COc1cnc(N2CCN(c3ccn4c(CC5CC5)nnc4c3C(F)(F)F)CC2)nc1 [Co. No. 9] | 126 | 462 |  |
| CC1(C)OC2(CCN(c3ccn4c(CC5CC5)nnc4c3C(F)(F)F)CC2)c2ccc(F)cc21 [Co. No. 7] |  | 263 |  |
| CC(C)Cn1ccc(N2CCC(c3ccccc3)CC2)c(Cl)c1=O [Co. No. 19-a] |  | 240 | GTPγS-hmGluR2 PAM pEC50: 6.71 |
| CCCCn1ccc(N2CCC(c3ccc(C(C)(C)O)cc3)CC2)c(Cl)c1=O [Co. No. 27-a] | 331 | 284 |  |
| O=c1c(C(F)(F)F)c(N2CCC(c3ccccc3)CC2)ccn1CC1CC1 [Co. No. 4-a] |  | 269 | GTPγS-hmGluR2 PAM pEC50: 6.6 |
| CCCCCn1ccc(N2CCC(c3ccccc3)CC2)c(Cl)c1=O [Co. No. 11-a] |  | 249 | GTPγS-hmGluR2 PAM pEC50: 7.11 |
